Reference: doi:10.1101/2024.08.19.608619, “Discovery of potent SARS-CoV-2 nsp3 macrodomain inhibitors uncovers lack of translation to cellular antiviral response” (bioRxiv, 2024)
Where “and” joins values, the source holds several entries; their conditions need not be identical. Equal entries are not always repeated. Where two headings read alike, the source gives them in different places.

How the values were obtained:
[1] = target: T1, beta1 (h) (Homo sapiens, UniProt P08588); test: In vitro CEREP profiling, beta1 (h) (agonist radioligand); assay type: binding; conditions: test compound 10 uM
T1 construct: purchased Eurofins Cerep (SafetyScreen44), recognised from the panel format
Text: (§1) Supplement media-1.zip/Safety_Panel_Profile.csv, table | column: perc_inhibition

[2] = target: T2, MAPKAP-K2(h) (Homo sapiens, UniProt P49137); test: biochemical; parameters: In vitro kinase panel profiling, per cent remaining kinase activity at 10 uM; conditions: atp_concentration=90, read-out: % of control remaining
T2 construct: gene MAPKAPK2
T2 sequence (P49137 whole entry): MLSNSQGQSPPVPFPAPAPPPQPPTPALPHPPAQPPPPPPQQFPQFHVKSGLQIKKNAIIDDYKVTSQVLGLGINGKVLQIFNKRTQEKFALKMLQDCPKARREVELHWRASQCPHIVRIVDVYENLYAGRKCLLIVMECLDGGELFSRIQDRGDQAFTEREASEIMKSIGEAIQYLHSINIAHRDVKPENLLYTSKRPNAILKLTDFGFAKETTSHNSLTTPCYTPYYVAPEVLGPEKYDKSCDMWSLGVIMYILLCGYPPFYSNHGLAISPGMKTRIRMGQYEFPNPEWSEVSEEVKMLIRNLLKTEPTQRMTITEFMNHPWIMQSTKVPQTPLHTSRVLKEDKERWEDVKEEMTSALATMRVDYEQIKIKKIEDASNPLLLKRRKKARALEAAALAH
Text: (§2) We derisk potential for off-target activity by profiling the compound in a CEREP panel, a standard secondary pharmacology assessment, as well as a kinase panel to derisk a potential hinge-binding motif in our leads, and a PARP panel to derisk activity against human […]. Reassuringly, the compounds are selective, with the only off-targets being moderate human CHRM2 and KOR receptors activity associated with ASAP-0011198.

[3] = target: T3, PI3 Kinase (p110β/p85α)(h) (Homo sapiens, UniProt P42338); test: biochemical; parameters: In vitro kinase panel profiling, per cent remaining kinase activity at 10 uM; conditions: atp_concentration=200, read-out: % of control remaining
T3 construct: gene PIK3CB
Text: as §2

[4] = target: T4, p70S6K(h) (Homo sapiens, UniProt P23443); test: biochemical; parameters: In vitro kinase panel profiling, per cent remaining kinase activity at 10 uM; conditions: atp_concentration=15, read-out: % of control remaining
T4 construct: gene RPS6KB1
T4 sequence (P23443 whole entry): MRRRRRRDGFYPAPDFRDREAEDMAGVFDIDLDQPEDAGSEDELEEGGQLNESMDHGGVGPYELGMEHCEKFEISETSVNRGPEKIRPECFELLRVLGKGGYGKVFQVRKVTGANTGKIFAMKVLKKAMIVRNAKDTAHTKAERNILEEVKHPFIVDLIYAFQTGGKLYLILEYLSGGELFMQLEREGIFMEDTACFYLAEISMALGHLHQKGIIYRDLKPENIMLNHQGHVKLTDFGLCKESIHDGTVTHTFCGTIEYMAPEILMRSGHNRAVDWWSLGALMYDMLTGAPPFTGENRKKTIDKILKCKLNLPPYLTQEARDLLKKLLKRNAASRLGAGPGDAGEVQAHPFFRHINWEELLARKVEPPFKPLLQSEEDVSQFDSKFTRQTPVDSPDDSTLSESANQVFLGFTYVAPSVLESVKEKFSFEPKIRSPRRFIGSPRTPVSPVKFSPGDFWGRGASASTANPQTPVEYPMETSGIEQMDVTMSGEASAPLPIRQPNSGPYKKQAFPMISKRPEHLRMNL
Text: as §2

[5] = target: T5, PKCα(h) (Homo sapiens, UniProt P17252); test: biochemical; parameters: In vitro kinase panel profiling, per cent remaining kinase activity at 10 uM; conditions: atp_concentration=45, read-out: % of control remaining
T5 construct: gene PRKCA
Text: as §2

[6] = target: T6, PI3 Kinase (p110α/p85α)(h) (Homo sapiens, UniProt P42336); test: biochemical; parameters: In vitro kinase panel profiling, per cent remaining kinase activity at 10 uM; conditions: atp_concentration=200, read-out: % of control remaining
T6 construct: gene PIK3CA
T6 sequence (P42336 whole entry): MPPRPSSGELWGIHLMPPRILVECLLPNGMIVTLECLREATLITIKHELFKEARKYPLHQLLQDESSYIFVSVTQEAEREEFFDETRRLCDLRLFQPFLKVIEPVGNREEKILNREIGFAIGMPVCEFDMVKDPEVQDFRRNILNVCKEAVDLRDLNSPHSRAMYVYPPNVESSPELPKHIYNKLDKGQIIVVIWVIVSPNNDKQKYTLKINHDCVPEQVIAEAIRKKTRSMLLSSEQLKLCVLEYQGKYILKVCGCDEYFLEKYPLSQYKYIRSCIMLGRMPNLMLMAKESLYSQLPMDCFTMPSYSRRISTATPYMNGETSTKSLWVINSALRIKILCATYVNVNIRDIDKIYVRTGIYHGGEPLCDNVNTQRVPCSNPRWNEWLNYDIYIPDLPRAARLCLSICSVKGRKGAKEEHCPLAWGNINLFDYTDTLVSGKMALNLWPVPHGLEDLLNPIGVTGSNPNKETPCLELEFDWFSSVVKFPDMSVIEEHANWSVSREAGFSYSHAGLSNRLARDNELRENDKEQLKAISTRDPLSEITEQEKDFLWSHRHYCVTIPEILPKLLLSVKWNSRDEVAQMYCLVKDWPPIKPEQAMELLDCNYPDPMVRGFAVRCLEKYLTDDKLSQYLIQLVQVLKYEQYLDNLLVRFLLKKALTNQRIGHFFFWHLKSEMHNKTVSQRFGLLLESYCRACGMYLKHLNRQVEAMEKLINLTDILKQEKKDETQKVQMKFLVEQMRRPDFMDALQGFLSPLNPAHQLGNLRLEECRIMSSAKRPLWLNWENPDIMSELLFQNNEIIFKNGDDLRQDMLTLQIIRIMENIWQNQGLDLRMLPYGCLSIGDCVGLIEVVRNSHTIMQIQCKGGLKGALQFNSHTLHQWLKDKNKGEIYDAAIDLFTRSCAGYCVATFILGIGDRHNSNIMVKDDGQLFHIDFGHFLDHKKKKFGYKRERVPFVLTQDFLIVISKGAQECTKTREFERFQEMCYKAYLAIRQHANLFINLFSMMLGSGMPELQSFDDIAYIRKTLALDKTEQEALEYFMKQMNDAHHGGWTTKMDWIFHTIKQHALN
T6 sequence (P27986 whole entry partner): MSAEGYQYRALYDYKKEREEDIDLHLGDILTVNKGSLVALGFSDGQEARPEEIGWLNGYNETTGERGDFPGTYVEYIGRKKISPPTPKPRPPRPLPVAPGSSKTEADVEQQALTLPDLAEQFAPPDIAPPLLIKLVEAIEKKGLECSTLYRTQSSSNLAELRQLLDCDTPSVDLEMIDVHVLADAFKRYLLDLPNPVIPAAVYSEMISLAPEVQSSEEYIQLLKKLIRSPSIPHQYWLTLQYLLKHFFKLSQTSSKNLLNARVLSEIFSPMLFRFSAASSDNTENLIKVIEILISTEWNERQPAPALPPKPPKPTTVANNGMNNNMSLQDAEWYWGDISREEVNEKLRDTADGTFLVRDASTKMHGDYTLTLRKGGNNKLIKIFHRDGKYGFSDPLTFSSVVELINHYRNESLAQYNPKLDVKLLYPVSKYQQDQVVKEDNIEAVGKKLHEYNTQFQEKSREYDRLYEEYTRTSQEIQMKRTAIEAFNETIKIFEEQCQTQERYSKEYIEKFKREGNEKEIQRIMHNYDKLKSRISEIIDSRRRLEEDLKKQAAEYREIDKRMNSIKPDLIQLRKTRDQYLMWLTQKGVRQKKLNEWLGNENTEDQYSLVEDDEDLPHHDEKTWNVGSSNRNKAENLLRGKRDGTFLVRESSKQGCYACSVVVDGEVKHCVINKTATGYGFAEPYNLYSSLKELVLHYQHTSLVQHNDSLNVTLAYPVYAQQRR
Text: as §2

[7] = Permeability Papp (AB) MDR1/MDCKII; conditions: for papp_a_to_b_mean / papp_b_to_a_mean / perc_recovery_a_to_b_mean / perc_recovery_b_to_a_mean: In vitro MDR1-MDCKII permeability; for papp_b_to_a_mean: B to A; for perc_recovery_a_to_b_mean / perc_recovery_a_to_b_inhibitor_mean: recovery A to B; for perc_recovery_b_to_a_mean / perc_recovery_b_to_a_inhibitor_mean: recovery B to A
[8] = Hepatic microsomal stability, MLM; assay type: in vitro ADME
[9] = target: T7, human CHRM2 (M2) (Homo sapiens, UniProt P08172); test: Eurofins CEREP panel, M2; assay type: binding; conditions: M2 (h) (antagonist radioligand); test compound concentration 10 uM
T7 construct: purchased Eurofins Cerep (SafetyScreen44), recognised from the panel format
T7 sequence (P08172 1-466): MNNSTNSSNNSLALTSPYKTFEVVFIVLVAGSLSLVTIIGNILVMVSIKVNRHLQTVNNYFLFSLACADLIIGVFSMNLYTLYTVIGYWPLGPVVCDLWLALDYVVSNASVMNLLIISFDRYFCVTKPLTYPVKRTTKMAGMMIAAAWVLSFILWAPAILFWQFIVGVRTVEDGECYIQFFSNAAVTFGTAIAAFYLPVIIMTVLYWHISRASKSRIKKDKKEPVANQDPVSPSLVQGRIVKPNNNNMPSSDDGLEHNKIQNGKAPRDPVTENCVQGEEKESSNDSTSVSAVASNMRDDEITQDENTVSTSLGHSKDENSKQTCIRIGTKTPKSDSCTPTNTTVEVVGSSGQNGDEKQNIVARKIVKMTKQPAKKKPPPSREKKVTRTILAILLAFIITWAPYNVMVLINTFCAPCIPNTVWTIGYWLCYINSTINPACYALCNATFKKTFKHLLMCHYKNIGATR

[10] = test system: AR(h); test: In vitro CEREP profiling, AR(h) (agonist radioligand); assay type: binding, human; conditions: test compound concentration 10 uM
Text: as §1

[11] = In vitro dog liver microsomal stability; assay type: in vitro ADME
Text: (§3) Supplement media-1.zip/Hepatic_Microsomal_Stability.csv, table | column: clint; t_half

[12] = target: T8, D2S (h) (Homo sapiens, UniProt P14416); test: In vitro CEREP profiling, D2S (h) (agonist radioligand); assay type: binding; conditions: test compound 10 uM
T8 construct: purchased Eurofins Cerep (SafetyScreen44), recognised from the panel format
T8 sequence (P14416 1-414 isoform P14416-2): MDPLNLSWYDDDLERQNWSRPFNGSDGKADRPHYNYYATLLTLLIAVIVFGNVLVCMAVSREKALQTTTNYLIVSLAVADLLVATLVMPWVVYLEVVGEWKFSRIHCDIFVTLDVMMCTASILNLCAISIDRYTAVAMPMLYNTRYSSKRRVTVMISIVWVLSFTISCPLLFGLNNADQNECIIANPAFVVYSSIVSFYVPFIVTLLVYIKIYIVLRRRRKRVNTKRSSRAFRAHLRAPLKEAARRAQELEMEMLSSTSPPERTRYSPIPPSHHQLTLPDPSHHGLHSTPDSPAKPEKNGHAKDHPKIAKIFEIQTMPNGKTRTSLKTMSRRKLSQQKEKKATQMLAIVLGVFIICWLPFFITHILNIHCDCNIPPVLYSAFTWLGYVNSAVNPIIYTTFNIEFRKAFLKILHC
Text: as §1

[13] = target: hERG (Homo sapiens, UniProt Q12809); test: In vitro hERG cardiotoxocity; conditions: top test concentration 30 uM
Text: Supplement media-1.zip/Cardiotoxicity.csv, table | column: ic50; perc_inhibition_top_conc

[14] = In vitro rat SD liver microsomal stability; assay type: in vitro ADME
Text: as §3

[15] = target: T9, M3 (h) (Homo sapiens, UniProt P20309); test: In vitro CEREP profiling, M3 (h) (antagonist radioligand); assay type: binding; conditions: test compound concentration 10 uM
T9 construct: purchased Eurofins Cerep (SafetyScreen44), recognised from the panel format
T9 sequence (P20309 whole entry): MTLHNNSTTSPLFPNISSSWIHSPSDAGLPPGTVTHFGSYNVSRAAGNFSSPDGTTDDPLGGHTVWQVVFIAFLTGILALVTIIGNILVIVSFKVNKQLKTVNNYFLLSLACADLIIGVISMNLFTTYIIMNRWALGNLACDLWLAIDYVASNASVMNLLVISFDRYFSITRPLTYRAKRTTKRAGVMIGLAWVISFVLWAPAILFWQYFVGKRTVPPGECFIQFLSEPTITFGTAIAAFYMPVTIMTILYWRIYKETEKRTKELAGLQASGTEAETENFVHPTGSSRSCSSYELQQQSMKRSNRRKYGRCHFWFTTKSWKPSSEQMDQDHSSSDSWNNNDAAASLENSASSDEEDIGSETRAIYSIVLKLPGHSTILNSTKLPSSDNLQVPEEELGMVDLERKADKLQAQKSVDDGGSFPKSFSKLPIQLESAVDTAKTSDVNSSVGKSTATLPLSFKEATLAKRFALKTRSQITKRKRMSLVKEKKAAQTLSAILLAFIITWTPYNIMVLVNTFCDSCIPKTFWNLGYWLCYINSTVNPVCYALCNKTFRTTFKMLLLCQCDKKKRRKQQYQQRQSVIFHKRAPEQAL
Text: as §1

[16] = target: NaV1.5 (Homo sapiens, UniProt Q14524); test: In vitro NaV1.5 cardiotoxicity; conditions: top test concentration 30 uM
Text: Supplement media-1.zip/Cardiotoxicity.csv, table | column: ic50_rest_state; ic50_use_dep_block; perc_inhibition_rest_state; perc_inhibition_use_dep_block

[17] = target: CDK6/cyclinD3(h) (Homo sapiens, UniProt Q00534); test: biochemical; parameters: In vitro kinase panel profiling, per cent remaining kinase activity at 10 uM; conditions: atp_concentration=200, read-out: % of control remaining
Sequence of CDK6/cyclinD3(h) (Q00534 whole entry): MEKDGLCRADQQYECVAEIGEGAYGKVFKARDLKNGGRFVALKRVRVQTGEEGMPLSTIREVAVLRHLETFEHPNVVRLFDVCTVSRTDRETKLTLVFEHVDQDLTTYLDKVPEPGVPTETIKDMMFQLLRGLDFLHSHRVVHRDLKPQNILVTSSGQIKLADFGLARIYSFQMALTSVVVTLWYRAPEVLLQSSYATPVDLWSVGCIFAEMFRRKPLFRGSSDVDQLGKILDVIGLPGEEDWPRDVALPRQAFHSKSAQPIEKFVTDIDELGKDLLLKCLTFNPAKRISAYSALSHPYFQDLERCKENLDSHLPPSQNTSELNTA
Sequence of CDK6/cyclinD3(h) (P30281 whole entry partner): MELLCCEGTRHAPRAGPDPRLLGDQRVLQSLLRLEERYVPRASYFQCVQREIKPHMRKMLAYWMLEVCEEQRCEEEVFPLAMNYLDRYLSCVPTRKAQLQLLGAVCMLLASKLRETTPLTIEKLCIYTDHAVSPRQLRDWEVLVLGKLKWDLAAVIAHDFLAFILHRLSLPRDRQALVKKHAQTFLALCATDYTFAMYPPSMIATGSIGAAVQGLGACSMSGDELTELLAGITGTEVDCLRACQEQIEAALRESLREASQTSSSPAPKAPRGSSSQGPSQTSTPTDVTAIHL
Text: as §2

[18] = MDR1-MDCKII, with inhibitor Cyclosporin A
[19] = In vitro mouse liver microsomal stability
[20] = In vitro mouse liver microsomal stability, no cofactor
[21] = NaV1.5, rest state, read-out: ic50_rest_state
[22] = NaV1.5, use dependent block, read-out: ic50_use_dep_block
[23] = In vitro mouse liver microsomal stability; no cofactor
[24] = MDR1-MDCKII, with inhibitor Verapamil

## Cn1ncc(-c2cc3c(N[C@@H](c4ccc5c(n4)OCCO5)C(C)(C)C)ncnc3[nH]2)c1C#N [ASAP-0011221]
[1]
  perc_inhibition (% inhibition of the binding of a ligand specific for each target): 11%
[2]; batch_name=ASAP-0011221-002
  remaining activity at 10 µM: 110%
[3]; batch_name=ASAP-0011221-002
  remaining activity at 10 µM: 91%
[4]; batch_name=ASAP-0011221-002
  remaining activity at 10 µM: 108%
[5]; batch_name=ASAP-0011221-002
  remaining activity at 10 µM: 87%
[6]; batch_name=ASAP-0011221-002
  remaining activity at 10 µM: 75%
[7]; A to B, mean
  papp_a_to_b_mean: 14.0 ×10⁻⁶ cm/s
[7]; A to B, no inhibitor
  papp_a_to_b_mean: 2.76 ×10⁻⁶ cm/s
[7]; no inhibitor
  papp_b_to_a_mean: 5.51 ×10⁻⁶ cm/s
  perc_recovery_a_to_b_mean: 94.8%
  perc_recovery_b_to_a_mean: 101.0%
[7]; mean
  perc_recovery_a_to_b_mean: 84.8%
[7]; [18]
  perc_recovery_a_to_b_inhibitor_mean: 61.6%
  perc_recovery_b_to_a_inhibitor_mean: 62.4%
[8]; [19]
  clint: 226.0 µL/min/mg
  perc_remaining: 2.0%
  t_half: 7.4 min
[8]; [20]
  perc_remaining_no_cofactor: 94.0%
[9]
  perc_inhibition (% inhibition of the binding of a ligand specific for each target): 25%
[10]
  perc_inhibition (% inhibition of the binding of a ligand specific for each target): 5%
[11]
  clint: 17.8 µL/min/mg
  t_half: 38.8 min
[12]
  perc_inhibition (% inhibition of the binding of a ligand specific for each target): 13%
[13]
  IC50: 19.5 µM
[14]
  clint: 129.0 µL/min/mg
  t_half: 5.38 min
[15]
  perc_inhibition (% inhibition of the binding of a ligand specific for each target): -8%
[16]; NaV1.5, rest state
  perc_inhibition_rest_state: 17.0%
[16]; [21]
  IC50: > 30 µM
[16]; NaV1.5, use dependent block
  perc_inhibition_use_dep_block: 21.0%
[16]; [22]
  IC50: > 30 µM

## CC(C)C(Nc1ncnc2[nH]ccc12)c1ccc2c(c1)S(=O)(=O)CCC2 (stereo not drawn) [ASAP-0008327]
[2]; batch_name=ASAP-0008327-001
  remaining activity at 10 µM: 105%
[3]; batch_name=ASAP-0008327-001
  remaining activity at 10 µM: 101%
[4]; batch_name=ASAP-0008327-001
  remaining activity at 10 µM: 98%
[17]; batch_name=ASAP-0008327-001
  remaining activity at 10 µM: 99%
[5]; batch_name=ASAP-0008327-001
  remaining activity at 10 µM: 104%
[6]; batch_name=ASAP-0008327-001
  remaining activity at 10 µM: 104%
[7]; mean
  perc_recovery_a_to_b_mean: 87.0%
[8]; [19]
  perc_remaining: 10.0%
  t_half: 12.1 min
[8]; [23]
  perc_remaining_no_cofactor: 103.0%
[8]; mouse, liver microsomes, In vitro mouse liver microsomal stability
  microsomal CLint: 138 µL/min/mg

## COc1ccc([C@@H](Cc2nnn[nH]2)NC(=O)c2ncnc3[nH]ccc23)cc1 [ASAP-0008340]
[2]; batch_name=ASAP-0008340-001
  remaining activity at 10 µM: 92%
[3]; batch_name=ASAP-0008340-001
  remaining activity at 10 µM: 102%
[4]; batch_name=ASAP-0008340-001
  remaining activity at 10 µM: 81%
[17]; batch_name=ASAP-0008340-001
  remaining activity at 10 µM: 100%
[5]; batch_name=ASAP-0008340-001
  remaining activity at 10 µM: 95%
[6]; batch_name=ASAP-0008340-001
  remaining activity at 10 µM: 101%
[7]; A to B, mean
  papp_a_to_b_mean: 1.39 ×10⁻⁶ cm/s
[7]; mean
  perc_recovery_a_to_b_mean: 89.1%
[8]; [19]
  perc_remaining: 96.0%
  t_half: 4400.5 min
[8]; [20]
  perc_remaining_no_cofactor: 93.0%

## CC(C)[C@@H](Nc1ncnc2[nH]c(-c3cnn(C)c3C#N)cc12)c1ccc2c(n1)OCCO2 [ASAP-0008418]
[3]; batch_name=ASAP-0008418-001
  remaining activity at 10 µM: 92%
[4]; batch_name=ASAP-0008418-001
  remaining activity at 10 µM: 82%
[17]; batch_name=ASAP-0008418-001
  remaining activity at 10 µM: 105%
[5]; batch_name=ASAP-0008418-001
  remaining activity at 10 µM: 90%
[6]; batch_name=ASAP-0008418-001
  remaining activity at 10 µM: 49%
[7]; A to B, mean
  papp_a_to_b_mean: 12.8 ×10⁻⁶ cm/s and 21.3 ×10⁻⁶ cm/s
[7]; mean
  perc_recovery_a_to_b_mean: 82.0% and 88.6%
[8]; [19]
  clint: 139.0 µL/min/mg and 169.0 µL/min/mg
  perc_remaining: 10.0% and 6.0%
  t_half: 12.0 min and 9.9 min
[8]; [20]
  perc_remaining_no_cofactor: 101.0%
[8]; [23]
  perc_remaining_no_cofactor: 110.0%

## CC(C)[C@@H](Nc1ncnc2[nH]c(-c3cnn(C)c3C#N)cc12)c1ccc2c(n1)OCCO2 [ASAP-0010716]
[1]
  perc_inhibition (% inhibition of the binding of a ligand specific for each target): -2%
[2]; batch_name=ASAP-0010716-002
  remaining activity at 10 µM: 114%
[3]; batch_name=ASAP-0010716-002
  remaining activity at 10 µM: 84%
[4]; batch_name=ASAP-0010716-002
  remaining activity at 10 µM: 106%
[5]; batch_name=ASAP-0010716-002
  remaining activity at 10 µM: 99%
[6]; batch_name=ASAP-0010716-002
  remaining activity at 10 µM: 55%
[7]; A to B, mean
  papp_a_to_b_mean: 14.6 ×10⁻⁶ cm/s
[7]; A to B, no inhibitor
  papp_a_to_b_mean: 1.05 ×10⁻⁶ cm/s and 1.02 ×10⁻⁶ cm/s and 0.676 ×10⁻⁶ cm/s
[7]; no inhibitor
  papp_b_to_a_mean: 6.5 ×10⁻⁶ cm/s and 6.1 ×10⁻⁶ cm/s and 8.26 ×10⁻⁶ cm/s
  perc_recovery_a_to_b_mean: 67.5% and 74.0% and 87.7%
  perc_recovery_b_to_a_mean: 70.0% and 84.4% and 95.1%
[7]; mean
  perc_recovery_a_to_b_mean: 85.7%
[7]; MDR1-MDCKII, A to B, with inhibitor Cyclosporin A
  papp_a_to_b_inhibitor_mean: 4.51 ×10⁻⁶ cm/s
[7]; [18]
  perc_recovery_a_to_b_inhibitor_mean: 115.0% and 75.2%
  perc_recovery_b_to_a_inhibitor_mean: 106.0% and 78.2%
[7]; [24]
  perc_recovery_a_to_b_inhibitor_mean: 107.0%
  perc_recovery_b_to_a_inhibitor_mean: 88.6%
[8]; [19]
  clint: 371.0 µL/min/mg
  perc_remaining: 1.0%
  t_half: 4.5 min
[8]; [23]
  perc_remaining_no_cofactor: 99.0%
[9]
  perc_inhibition (% inhibition of the binding of a ligand specific for each target): 15%
[10]
  perc_inhibition (% inhibition of the binding of a ligand specific for each target): 12%
[11]
  clint: 23.2 µL/min/mg
  t_half: 29.8 min
[12]
  perc_inhibition (% inhibition of the binding of a ligand specific for each target): 3%
[13]
  IC50: 10.1 µM
[14]
  clint: 156.0 µL/min/mg
  t_half: 4.46 min
[15]
  perc_inhibition (% inhibition of the binding of a ligand specific for each target): 1%
[16]; NaV1.5, rest state
  perc_inhibition_rest_state: 27.0%
[16]; [21]
  IC50: > 30 µM
[16]; NaV1.5, use dependent block
  perc_inhibition_use_dep_block: 25.0%
[16]; [22]
  IC50: > 30 µM
